We go through six molecules from article PMC6210068 (ACS Omega, 2018).

Each structure is given as a SMILES string. Bounds are passed on as bounds.

Assay [1] concerns the target human α2C adrenergic receptor (Homo sapiens, UniProt P18825). Briefly: PDSP off-target binding, α2C adrenergic.
The target of assay [2] is T1, KOR (Homo sapiens, UniProt P41145). Briefly: biochemical. In kind it is binding. The following applies: for Ki: KOR, [3H]U69593, mean ± SEM, N = 2–4.
For assay [3], the target named is T2, DOR (Homo sapiens, UniProt P41143). Briefly: Radioligand binding at DOR.
For assay [4], the target named is T1, KOR. The class given is cell-based.
A further assay concerns the target hA2AAR (Homo sapiens, UniProt P29274). Briefly: hA2AAR binding. Conditions: read-out: binding inhibition at hA2AAR (% at 10 μM).
The next assay deals with T3, hA1AR (Homo sapiens, UniProt P30542).
T3 sequence (P30542 1-326): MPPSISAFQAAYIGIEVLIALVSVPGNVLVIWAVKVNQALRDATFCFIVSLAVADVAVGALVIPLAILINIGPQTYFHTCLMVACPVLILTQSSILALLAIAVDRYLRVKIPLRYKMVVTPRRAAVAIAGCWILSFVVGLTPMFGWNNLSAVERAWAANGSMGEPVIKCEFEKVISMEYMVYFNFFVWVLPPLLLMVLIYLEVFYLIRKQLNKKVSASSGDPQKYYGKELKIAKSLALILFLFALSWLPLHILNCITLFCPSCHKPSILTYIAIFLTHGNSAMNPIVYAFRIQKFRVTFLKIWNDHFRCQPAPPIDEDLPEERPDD
Briefly: hA1AR binding.

For the next assay, the target named is T4, hA3AR (Homo sapiens, UniProt P0DMS8).
T4 sequence (P0DMS8 1-318): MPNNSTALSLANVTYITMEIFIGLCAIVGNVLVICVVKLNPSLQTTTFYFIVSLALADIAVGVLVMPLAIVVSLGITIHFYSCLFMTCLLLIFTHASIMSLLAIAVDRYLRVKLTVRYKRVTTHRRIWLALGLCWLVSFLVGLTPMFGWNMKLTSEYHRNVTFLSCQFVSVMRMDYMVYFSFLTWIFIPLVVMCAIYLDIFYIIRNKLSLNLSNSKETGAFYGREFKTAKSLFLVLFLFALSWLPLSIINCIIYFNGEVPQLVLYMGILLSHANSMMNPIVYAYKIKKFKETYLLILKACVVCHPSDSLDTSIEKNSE
Briefly: A3AR binding.

A further assay deals with rat kidney TSPO (Rattus norvegicus, UniProt P16257). Briefly: Radioligand binding at TSPO. The following applies: TSPO, Ki, rat TSPO; [3H]PK11195.
In assay [5] the target is T1, KOR. Briefly: cell-based. The class given is cell-based.
The next assay deals with hDAT (Homo sapiens, UniProt Q01959). Briefly: Radioligand binding at DAT. The following applies: 10 μM; [3H]WIN35428; negative = enhanced radioligand binding.
Assay [6] addresses T5, MOR (Homo sapiens, UniProt P35372). Briefly: biochemical. The class given is binding. Conditions: for MOR, inhibition of radioligand binding at 10 μM (class): Table 2.
A further assay addresses hSERT (Homo sapiens, UniProt P31645). Briefly: biochemical. In kind it is binding.
Another assay concerns the target β3 adrenergic receptor (Homo sapiens, UniProt P13945). Briefly: PDSP off-target binding, β3 adrenergic.
Another assay deals with 5HT2B serotonin receptor (Homo sapiens, UniProt P41595). Briefly: PDSP off-target binding, 5HT2B.
For the next assay, the target named is T6, rat σ2 receptor (Rattus norvegicus, UniProt Q5U3Y7).
T6 sequence (Q5U3Y7 1-176): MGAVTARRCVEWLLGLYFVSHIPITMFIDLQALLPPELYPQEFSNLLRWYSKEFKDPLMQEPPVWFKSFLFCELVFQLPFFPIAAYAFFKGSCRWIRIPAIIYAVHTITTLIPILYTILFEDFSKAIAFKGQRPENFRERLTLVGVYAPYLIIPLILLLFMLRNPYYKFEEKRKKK
Briefly: PDSP binding, σ2 receptor.

A further assay has as its target 5HT2A serotonin receptor (Homo sapiens, UniProt P28223). Briefly: PDSP off-target binding, 5HT2A.
The target of the next assay is T7, 5HT2C serotonin receptor (Homo sapiens, UniProt P28335).
T7 sequence (P28335 33-458): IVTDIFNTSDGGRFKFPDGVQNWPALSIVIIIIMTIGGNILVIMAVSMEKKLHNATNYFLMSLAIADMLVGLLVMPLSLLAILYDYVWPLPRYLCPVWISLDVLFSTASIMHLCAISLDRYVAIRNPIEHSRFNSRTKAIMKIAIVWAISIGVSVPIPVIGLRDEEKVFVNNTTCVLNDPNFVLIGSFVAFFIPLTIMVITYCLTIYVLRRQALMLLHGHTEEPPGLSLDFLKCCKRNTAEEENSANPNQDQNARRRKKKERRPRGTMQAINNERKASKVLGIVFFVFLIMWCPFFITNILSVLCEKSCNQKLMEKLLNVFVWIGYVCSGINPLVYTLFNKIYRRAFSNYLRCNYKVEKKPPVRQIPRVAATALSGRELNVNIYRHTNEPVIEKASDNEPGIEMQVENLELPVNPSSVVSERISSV
Briefly: PDSP off-target binding, 5HT2C.

For a further assay, the target named is muscarinic M5 receptor (Homo sapiens, UniProt P08912). Briefly: PDSP off-target binding, muscarinic M5.
The next assay concerns the target mA2AAR (Mus musculus, UniProt Q60613). Briefly: mA2AAR binding. Conditions: read-out: mA2AAR binding, % inhibition at 10 μM.
In assay [7] the target is T5, MOR. Briefly: β-arrestin-recruitment TANGO assay at MOR. In kind it is cell-based. The following applies: 10 μM.
For another assay, the target named is T8, mA3AR (Mus musculus, UniProt Q61618).
T8 sequence (Q61618 1-319): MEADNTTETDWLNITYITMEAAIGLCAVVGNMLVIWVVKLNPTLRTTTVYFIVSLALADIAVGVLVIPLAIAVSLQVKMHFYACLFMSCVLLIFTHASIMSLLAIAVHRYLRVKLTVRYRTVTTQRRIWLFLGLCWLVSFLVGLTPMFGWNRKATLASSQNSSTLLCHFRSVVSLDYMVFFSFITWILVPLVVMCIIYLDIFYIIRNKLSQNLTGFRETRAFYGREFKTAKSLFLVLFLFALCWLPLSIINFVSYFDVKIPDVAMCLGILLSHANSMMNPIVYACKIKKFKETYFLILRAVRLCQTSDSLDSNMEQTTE
The following applies: ref Tosh et al. 2,3,6,34,35,37; cited from earlier work.

The target of assay [8] is T1, KOR. Briefly: β-arrestin-recruitment TANGO assay at KOR. The class given is cell-based. Conditions: 10 μM; vs naloxone 121 = 100% inhibition; agonist 109 (3 nM).
Assay [9] deals with T2, DOR. Briefly: β-arrestin-recruitment TANGO assay at DOR. The following applies: 10 μM. In kind it is cell-based.
The next assay addresses T9, mA1AR (Mus musculus, UniProt Q60612).
T9 sequence (Q60612 1-326): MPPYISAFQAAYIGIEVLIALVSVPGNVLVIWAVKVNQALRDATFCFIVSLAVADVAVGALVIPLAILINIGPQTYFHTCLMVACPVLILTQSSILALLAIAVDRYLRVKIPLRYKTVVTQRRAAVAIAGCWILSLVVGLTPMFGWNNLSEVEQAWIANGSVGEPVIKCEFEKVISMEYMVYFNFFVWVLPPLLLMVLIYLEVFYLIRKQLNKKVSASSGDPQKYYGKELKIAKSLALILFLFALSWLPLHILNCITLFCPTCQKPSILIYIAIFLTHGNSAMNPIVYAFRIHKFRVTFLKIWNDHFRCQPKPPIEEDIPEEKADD
Briefly: mA1AR binding. Conditions: read-out: mA1AR binding, % inhibition at 10 μM.

Assay [10] deals with rat brain benzodiazepine receptor. Briefly: PDSP binding, rat brain benzodiazepine receptor. The following applies: read-out: rat brain benzodiazepine receptor, Ki.

T5 sequence (P35372 whole entry): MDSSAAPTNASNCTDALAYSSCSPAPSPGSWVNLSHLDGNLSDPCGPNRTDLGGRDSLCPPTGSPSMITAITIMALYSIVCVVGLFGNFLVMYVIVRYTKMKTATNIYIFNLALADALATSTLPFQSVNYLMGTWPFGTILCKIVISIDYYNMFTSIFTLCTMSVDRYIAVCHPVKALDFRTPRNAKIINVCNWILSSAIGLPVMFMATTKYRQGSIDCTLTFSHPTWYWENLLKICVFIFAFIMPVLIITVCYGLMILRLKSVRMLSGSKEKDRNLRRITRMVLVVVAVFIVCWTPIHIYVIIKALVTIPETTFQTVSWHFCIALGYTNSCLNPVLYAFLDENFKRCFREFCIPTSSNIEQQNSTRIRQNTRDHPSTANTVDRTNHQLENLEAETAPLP
rat kidney TSPO, sequence (P16257 whole entry): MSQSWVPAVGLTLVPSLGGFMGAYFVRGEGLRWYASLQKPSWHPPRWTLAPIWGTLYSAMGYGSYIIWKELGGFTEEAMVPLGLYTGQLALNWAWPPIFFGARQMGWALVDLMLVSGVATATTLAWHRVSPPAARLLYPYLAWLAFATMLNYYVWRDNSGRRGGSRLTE
hDAT, sequence (Q01959 whole entry): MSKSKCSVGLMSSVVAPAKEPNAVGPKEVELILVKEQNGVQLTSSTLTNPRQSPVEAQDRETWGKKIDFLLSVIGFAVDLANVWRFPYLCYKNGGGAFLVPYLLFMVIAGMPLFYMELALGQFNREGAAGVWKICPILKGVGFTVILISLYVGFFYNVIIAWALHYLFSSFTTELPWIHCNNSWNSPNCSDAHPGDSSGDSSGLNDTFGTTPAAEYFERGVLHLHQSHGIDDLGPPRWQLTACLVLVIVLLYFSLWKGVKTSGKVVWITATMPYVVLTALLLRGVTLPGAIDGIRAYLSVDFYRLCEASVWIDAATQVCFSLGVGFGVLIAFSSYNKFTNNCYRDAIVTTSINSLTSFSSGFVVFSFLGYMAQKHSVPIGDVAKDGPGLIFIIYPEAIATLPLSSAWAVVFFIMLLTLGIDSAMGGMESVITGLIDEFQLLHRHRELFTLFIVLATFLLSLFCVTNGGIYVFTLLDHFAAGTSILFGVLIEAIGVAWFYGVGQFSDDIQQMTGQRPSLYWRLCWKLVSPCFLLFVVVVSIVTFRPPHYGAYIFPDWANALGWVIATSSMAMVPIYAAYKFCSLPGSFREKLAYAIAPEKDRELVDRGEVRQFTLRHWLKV
T2 sequence (P41143 whole entry): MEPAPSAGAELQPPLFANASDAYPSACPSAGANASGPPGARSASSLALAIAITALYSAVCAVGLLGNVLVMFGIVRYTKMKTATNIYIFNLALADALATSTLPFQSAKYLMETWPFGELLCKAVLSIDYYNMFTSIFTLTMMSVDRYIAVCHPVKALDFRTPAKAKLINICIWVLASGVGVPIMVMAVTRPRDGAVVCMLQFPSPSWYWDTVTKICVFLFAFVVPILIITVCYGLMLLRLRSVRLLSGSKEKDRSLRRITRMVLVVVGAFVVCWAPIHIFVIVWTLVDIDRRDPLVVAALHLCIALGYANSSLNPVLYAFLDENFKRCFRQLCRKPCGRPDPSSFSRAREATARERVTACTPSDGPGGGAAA
T1 sequence (P41145 whole entry): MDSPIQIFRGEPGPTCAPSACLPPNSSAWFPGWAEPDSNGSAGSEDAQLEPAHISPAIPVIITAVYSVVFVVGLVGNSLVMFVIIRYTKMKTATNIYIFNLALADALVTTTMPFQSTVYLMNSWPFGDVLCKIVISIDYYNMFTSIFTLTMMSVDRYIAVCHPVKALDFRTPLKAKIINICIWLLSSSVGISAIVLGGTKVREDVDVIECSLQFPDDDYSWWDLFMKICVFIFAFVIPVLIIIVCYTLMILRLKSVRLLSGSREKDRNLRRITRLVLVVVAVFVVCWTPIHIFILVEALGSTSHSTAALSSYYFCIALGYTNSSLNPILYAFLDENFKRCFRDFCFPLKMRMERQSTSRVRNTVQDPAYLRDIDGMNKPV
5HT2B serotonin receptor, sequence (P41595 whole entry): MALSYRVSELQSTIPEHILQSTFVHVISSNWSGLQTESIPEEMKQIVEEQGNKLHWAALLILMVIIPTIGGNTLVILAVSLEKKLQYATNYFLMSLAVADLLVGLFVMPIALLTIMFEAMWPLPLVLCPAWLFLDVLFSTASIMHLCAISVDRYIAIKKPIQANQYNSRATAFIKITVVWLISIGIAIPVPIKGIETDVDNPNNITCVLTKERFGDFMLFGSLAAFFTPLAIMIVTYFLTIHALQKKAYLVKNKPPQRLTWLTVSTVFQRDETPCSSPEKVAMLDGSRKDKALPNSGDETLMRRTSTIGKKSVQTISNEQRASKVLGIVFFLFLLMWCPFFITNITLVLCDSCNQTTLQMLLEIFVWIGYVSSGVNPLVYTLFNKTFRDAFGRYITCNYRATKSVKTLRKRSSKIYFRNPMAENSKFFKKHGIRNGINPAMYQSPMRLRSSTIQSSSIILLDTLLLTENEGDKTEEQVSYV
5HT2A serotonin receptor, sequence (P28223 whole entry): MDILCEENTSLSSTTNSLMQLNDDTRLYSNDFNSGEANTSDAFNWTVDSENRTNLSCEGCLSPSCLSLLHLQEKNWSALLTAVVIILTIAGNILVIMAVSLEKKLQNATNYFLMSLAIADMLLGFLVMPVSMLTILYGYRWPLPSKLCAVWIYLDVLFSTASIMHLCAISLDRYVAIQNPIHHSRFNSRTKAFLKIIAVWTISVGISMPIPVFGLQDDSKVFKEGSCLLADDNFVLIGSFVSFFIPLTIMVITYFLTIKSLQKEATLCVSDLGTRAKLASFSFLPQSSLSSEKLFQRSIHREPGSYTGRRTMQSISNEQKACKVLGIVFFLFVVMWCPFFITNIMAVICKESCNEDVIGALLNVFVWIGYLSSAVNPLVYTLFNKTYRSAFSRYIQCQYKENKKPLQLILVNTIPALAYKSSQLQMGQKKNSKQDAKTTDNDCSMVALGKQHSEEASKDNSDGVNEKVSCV
human α2C adrenergic receptor, sequence (P18825 whole entry): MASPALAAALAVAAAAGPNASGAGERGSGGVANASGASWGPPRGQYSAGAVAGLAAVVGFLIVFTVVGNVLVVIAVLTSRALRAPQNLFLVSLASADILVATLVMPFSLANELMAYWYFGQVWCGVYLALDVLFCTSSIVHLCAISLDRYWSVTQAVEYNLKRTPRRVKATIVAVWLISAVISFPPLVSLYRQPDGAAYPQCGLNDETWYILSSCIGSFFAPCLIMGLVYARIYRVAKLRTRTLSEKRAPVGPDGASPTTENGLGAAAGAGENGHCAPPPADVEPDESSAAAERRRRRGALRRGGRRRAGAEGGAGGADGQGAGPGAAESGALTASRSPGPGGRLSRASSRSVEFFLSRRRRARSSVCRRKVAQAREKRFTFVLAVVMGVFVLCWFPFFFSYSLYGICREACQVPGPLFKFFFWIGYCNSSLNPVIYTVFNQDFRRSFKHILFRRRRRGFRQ
hA2AAR, sequence (P29274 whole entry): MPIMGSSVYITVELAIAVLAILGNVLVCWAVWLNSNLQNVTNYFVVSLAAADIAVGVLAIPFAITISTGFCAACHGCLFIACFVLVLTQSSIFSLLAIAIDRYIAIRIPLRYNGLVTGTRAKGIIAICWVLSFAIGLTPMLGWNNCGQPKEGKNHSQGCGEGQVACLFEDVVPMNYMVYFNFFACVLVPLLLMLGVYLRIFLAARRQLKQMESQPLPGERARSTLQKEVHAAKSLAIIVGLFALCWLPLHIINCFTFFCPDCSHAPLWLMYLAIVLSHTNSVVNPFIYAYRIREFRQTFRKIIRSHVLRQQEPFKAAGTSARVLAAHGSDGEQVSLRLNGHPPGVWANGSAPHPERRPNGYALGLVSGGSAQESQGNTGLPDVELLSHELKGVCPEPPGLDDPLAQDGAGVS
β3 adrenergic receptor, sequence (P13945 whole entry): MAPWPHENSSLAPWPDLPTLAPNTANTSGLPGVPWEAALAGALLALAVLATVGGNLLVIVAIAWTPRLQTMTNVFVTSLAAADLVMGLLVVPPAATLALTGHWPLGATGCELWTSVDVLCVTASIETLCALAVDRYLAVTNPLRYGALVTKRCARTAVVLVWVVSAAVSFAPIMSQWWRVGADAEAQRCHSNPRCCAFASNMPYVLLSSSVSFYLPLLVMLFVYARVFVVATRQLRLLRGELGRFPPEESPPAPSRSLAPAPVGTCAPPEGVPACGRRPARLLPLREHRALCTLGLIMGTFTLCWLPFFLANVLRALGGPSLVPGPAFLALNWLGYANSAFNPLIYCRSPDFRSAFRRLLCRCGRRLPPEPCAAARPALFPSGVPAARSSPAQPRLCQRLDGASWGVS
mA2AAR, sequence (Q60613 whole entry): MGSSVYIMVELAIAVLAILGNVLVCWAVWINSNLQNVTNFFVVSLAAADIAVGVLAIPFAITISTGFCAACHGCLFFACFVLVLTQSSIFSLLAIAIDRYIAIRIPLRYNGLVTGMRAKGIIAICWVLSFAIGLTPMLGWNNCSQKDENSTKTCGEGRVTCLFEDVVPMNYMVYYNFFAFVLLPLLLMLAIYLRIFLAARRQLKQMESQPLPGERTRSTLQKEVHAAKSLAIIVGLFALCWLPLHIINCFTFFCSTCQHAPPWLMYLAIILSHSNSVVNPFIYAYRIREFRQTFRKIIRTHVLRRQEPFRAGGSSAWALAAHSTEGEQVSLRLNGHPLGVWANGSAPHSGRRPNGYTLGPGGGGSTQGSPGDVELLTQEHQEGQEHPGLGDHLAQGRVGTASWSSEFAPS

As for `CCOC(=O)[C@@]12C[C@@H]1[C@@H](n1ccc3c(NCCc4ccccc4)nc(C#Cc4ccccc4)nc31)[C@H](O)[C@@H]2O` [compound 43, Ethyl(1S,2R,3S,4R,5S)-2,3-dihydroxy-4-(4-(phenethylamino)-2-(phenylethynyl)-7H-pyrrolo[2,3-d]pyrimidin-7-yl)bicyclo[3.1.0]hexane-1-carboxylate], the Ki in assay [1] came to 510 nM; at KOR [2], 207 ± 21 nM; at DOR [3] it was 627 ± 178 nM; at hA3AR, 483 ± 62 nM; on rat kidney TSPO, 480 ± 200 nM; at MOR [6], 1770 ± 540 nM. At KOR [4] (1 μM 98), the “inhibition of agonist 98 in βarrestin2 assay” value is “did not inhibit”. Besides, the “βarrestin2 recruitment, agonist effect relative to full agonist 98” value at KOR [4] (agonist mode, highest concentrations) is given as 30 ± 4.6%. The values for the inhibition at 10 µM on hA2AAR and on hA1AR (read-out: binding inhibition at hA1AR (% at 10 μM)) were less than 10% and 26%, respectively. The “inhibition of agonist 98 in cAMP assay” value at KOR [5] (100 nM 98) was “did not inhibit”. At KOR [5] (CHO, read-out: inhibition of cAMP accumulation, % inhibition at 30 μM), the inhibition at 30 µM was found to be 23%. At hDAT, the “DAT, inhibition, % of control at 10 μM” value turned out to be 21%.

Consider `CCOC(=O)[C@@]12C[C@@H]1[C@@H](n1ccc3c(NC)nc(I)nc31)[C@@H]1OC(C)(C)O[C@@H]12` [compound 73, Ethyl(3aR,3bS,4aS,5R,5aS)-5-(2-iodo-4-(methylamino)-7H-pyrrolo[2,3-d]pyrimidin-7-yl)-2,2-dimethyltetrahydrocyclopropa[3,4]cyclopenta[1,2-d][1,3]dioxole-3b(3aH)-carboxylate], for which the Ki on hSERT was 6580 nM; at KOR [2], 276 ± 65 nM; at DOR [3], more than 10000 nM; on hA1AR it was 1110 nM; on hA3AR, 4050 ± 740 nM; on rat kidney TSPO, more than 10000 nM. In addition, on MOR [6], affinity was put at a Ki of 7600 nM. Further, at hDAT, the “DAT, inhibition, % of control at 10 μM” value is given as “–39%”.

For `CNC(=O)[C@@]12C[C@@H]1[C@@H](n1cnc3c(NCc4cccc(Cl)c4)nc(C#Cc4ccccc4)nc31)[C@H](O)[C@@H]2O` [compound 6], the Ki in [1] is 6300 nM; at β3 adrenergic receptor, 2600 nM; on 5HT2B serotonin receptor it was 2960 ± 600 nM; at rat σ2 receptor it was 1540 nM; at rat kidney TSPO, 2650 ± 290 nM. Besides, the “DOR, inhibition of radioligand binding at 10 μM (class)” value (from here on “DOR, inhibition of radioligand binding”) on DOR [3] (Table 1) is on record as “^e (30–50% inhibition of radioligand binding at 10 μM)”. For the same molecule, the “DAT, inhibition, % of control at 10 μM” value at hDAT was 7%.

In the case of `CCOC(=O)[C@@]12C[C@@H]1[C@@H](n1cnc3c(NC)nc(C#Cc4ccc(Cl)s4)cc31)[C@H](O)[C@@H]2O` [compound 27], the Ki came out at 1300 ± 290 nM at 5HT2A serotonin receptor; 1780 ± 280 nM at 5HT2B serotonin receptor; 47.3 ± 18.9 nM at hA3AR; 400 nM at 5HT2C serotonin receptor; 3390 ± 640 nM at rat kidney TSPO; 3850 nM on muscarinic M5 receptor. Further, the “KOR binding inhibition at 10 μM” value on KOR [2] (10 μM) is less than 10%. Moreover, the “KOR, inhibition of radioligand binding at 10 μM (class)” value at KOR [2] (Table 2, 10 μM) is reported as “^d (<30% inhibition of radioligand binding at 10 μM)”. In addition, the “DOR, inhibition of radioligand binding” value on DOR [3] (Table 2) is “^d (<30% inhibition of radioligand binding at 10 μM)”. In addition, the “DAT, inhibition, % of control at 10 μM” value on hDAT was “–354%”. On MOR [6], the “MOR, inhibition of radioligand binding at 10 μM (class)” value is recorded as “^d (<30% inhibition of radioligand binding at 10 μM)”.

As to `CCOC(=O)[C@@]12C[C@@H]1[C@@H](n1cnc3c(NC)nc(C#Cc4ccc(Cl)s4)nc31)[C@H](O)[C@@H]2O` [compound 24], the figures for the inhibition constant Ki at KOR [2] and on rat kidney TSPO were 396 ± 29 nM and 1290 ± 70 nM, respectively. Moreover, the “DOR, inhibition of radioligand binding” value at DOR [3] (Table 2) is on record as “^c (30–50% inhibition of radioligand binding at 10 μM)”. In addition, the inhibition at 10 µM was 10% at mA2AAR and 43% on mA1AR. For the same molecule, the “MOR Antag (%)” value at MOR [7] (vs naloxone 121 = 100% inhibition, agonist 99 (300 nM)) is “–13.4%”. The “MOR Ag (%)” value on MOR [7] (vs standard agonist = 100%) was determined as 0.3%. For the same molecule, at mA3AR, the “A3AR binding, % at 10 μM (m)” value is given as 45 ± 5%. Further, the “KOR Antag (%)” value on KOR [8] was 58.2%. The “MOR, inhibition of radioligand binding at 10 μM (class)” value on MOR [6] was “^d (<30% inhibition of radioligand binding at 10 μM)”. Moreover, at DOR [9] (vs naloxone 121 = 100% inhibition), the “DOR Antag (%)” value was 35.3%. Moreover, the “DOR Ag (%)” value at DOR [9] (vs standard agonist = 100%) is listed as 0.7%.

For the molecule `O[C@@H]1[C@H](O)[C@@H]2C[C@@H]2[C@H]1n1ccc2c(NC(C3CC3)C3CC3)nc(C#Cc3ccc(Br)s3)nc21` [compound 57, (1R,2R,3S,4R,5S)-4-(2-((5-Bromothiophen-2-yl)ethynyl)-4-((dicyclopropylmethyl)amino)-7H-pyrrolo[2,3-d]pyrimidin-7-yl)bicyclo[3.1.0]hexane-2,3-diol], the Ki in [10] was 118 nM; on 5HT2A serotonin receptor it was 4340 ± 1740 nM; on KOR [2], 3020 ± 90 nM; at DOR [3] it was more than 10000 nM; at rat σ2 receptor, 6920 nM; at hA3AR, 2440 ± 430 nM. In addition, at MOR [6], the Ki was more than 10000 nM.
